Test results: patent US10759766B2, “Certain chemical entities, compositions, and methods” (NeuPharma, Inc., priority 2011, dated 2020)

Legend:
[1] = test system: A549 cells; assay: Inhibition of cancer cell growth, MTT assay, A549; format: cell-based; conditions: Homo sapiens, A549, 72 h exposure
Procedure: (§1) Inhibition of cell growth by compounds was measured using MTT assay (Mosmann, T., Journal of Immunological Methods, 1983, 65, 55-63). Tumor cell lines were purchased from ATCC (American Type Culture Collection, Manassas, Va.). All cell lines were maintained in RPMI 1640 (Hyclone) supplemented with 10% fetal bovine serum (FBS, Hyclone), glutamine (2 mM, Hyclone), and antibiotics (penicillin 100 U/mL and streptomycin 50 μg/mL) at 37° C. in a humidified atmosphere of 5% CO2 in air. Taxol (as a positive control, Sigma) and compounds were dissolved in DMSO (Sigma), and the final concentration of DMSO in the medium was 1%. Tumor cells were plated in 96-well plates at densities of about 4000 cells/well of a 96-well plate and allowed to adhere/grow for 24 h. They were then treated with various concentrations of drug for 72 h. 3-(4,5-Dimethylthiazol-2-yl)-2,5-diphenyltetrazolium bromide (MTT, Sigma) was used to determine the number of viable cells at the time of compound addition and the number of cells remaining after 72 h compound exposure. The number of cells remaining after 72 h was compared to the number of viable cells at the time of compound addition by measuring the absorbance at 570 nm, allowing for the calculation of growth inhibition.
(§2) All concentrations of compounds were tested in triplicate and controls were averaged over 4 wells. IC50 was calculated by plotting the concentration of compound vs the percentage of inhibition in treated wells using GraphPad Prism 5. […] The scale utilized in Table 6 is as follows: +++ less than 1000 nM; ++ between 1000 nM and 5000 nM; and + greater than 5000 nM. The scale utilized in Table 7 is as follows: +++ less than 2000 nM; ++ between 2000 nM and 5000 nM; and + greater than 5000 nM.

[2] = molecular target: KDR (VEGFR2) (Homo sapiens (Human), UniProt P35968); assay: Z′-LYTE kinase inhibition assay (Invitrogen), KDR; format: biochemical; conditions: 1 μM compound, Z′-LYTE method; read-out: % inhibition at 1 μM against KDR
Chain of KDR (VEGFR2) (P35968 20-1356): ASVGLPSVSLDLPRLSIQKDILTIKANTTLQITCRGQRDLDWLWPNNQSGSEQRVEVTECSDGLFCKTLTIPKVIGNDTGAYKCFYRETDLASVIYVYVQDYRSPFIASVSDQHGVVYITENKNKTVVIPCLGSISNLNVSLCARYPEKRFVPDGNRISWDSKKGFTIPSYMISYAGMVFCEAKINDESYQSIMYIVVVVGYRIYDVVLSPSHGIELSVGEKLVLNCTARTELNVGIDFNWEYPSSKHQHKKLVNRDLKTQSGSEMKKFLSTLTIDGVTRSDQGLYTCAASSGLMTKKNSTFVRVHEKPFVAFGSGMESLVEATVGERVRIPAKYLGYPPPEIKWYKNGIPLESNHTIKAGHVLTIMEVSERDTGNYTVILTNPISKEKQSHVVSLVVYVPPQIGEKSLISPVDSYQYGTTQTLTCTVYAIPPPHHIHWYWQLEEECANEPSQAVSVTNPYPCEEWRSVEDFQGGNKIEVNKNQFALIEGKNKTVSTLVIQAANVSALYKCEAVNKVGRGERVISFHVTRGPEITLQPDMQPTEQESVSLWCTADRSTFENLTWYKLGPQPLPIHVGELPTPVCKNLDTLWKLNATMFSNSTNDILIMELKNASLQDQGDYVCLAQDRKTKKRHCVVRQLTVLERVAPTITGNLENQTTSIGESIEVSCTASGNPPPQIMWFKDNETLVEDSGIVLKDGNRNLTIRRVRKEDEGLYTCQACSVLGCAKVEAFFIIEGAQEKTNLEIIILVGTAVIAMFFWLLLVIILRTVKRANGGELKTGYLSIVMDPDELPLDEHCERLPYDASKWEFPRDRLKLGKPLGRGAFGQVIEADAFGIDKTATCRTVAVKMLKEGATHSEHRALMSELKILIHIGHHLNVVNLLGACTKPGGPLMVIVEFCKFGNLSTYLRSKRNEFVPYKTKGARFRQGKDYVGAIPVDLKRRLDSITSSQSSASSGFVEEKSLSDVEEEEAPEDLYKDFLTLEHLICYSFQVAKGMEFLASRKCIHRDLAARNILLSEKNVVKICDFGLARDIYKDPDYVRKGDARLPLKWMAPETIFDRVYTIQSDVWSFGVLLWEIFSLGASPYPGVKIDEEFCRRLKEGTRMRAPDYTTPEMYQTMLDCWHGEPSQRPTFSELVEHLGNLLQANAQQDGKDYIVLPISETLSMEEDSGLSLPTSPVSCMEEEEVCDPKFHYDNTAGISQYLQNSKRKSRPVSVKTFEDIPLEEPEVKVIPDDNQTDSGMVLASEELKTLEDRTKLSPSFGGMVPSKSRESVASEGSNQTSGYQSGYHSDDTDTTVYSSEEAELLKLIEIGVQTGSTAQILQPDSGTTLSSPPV
Procedure: (§3) Inhibitory activities Inhibitory activities of compounds against BRAF, and BRAF V600E were measured by Invitrogen using Z′-LYTE® Method as briefly described in the following. 4× Test compounds are dissolved in 1% DMSO. […] ATP solutions are diluted to a 4×ATP working concentration in Kinase Buffer (50 mM HEPES pH 7.5, 0.01% BRIJ-35, 10 mM MgCl2, 1 mM EGTA). Reaction started by 30-second shaking of mixture consisting of 2.5 μL 4× test compound, […] and 2.5 μL 4×ATP Solution on Bar-coded Corning, low volume NBS, black 384-well plate (Corning Cat. #3676). Then the mixture was incubated for 60-minute at room temperature for the kinase reaction, followed by addition of 5 μL of a 1:1024 dilution of development reagent A and 30-second plate shake. The mixture was then incubated for another 60-minute at room temperature for development reaction. Fluorescence was read by plate reader. IC50 was calculated by plotting the concentration of compound vs the percentage of inhibition in treated wells using GraphPad Prism 5.
Inhibitory activities of compounds against KDR (VEGFR2) were also measured by Invitrogen using Z′-LYTE® Method as described above with the following modification. The 2× KDR (VEGFR2)/Tyr 01 mixture is prepared in 50 mM HEPES pH 7.5, 0.01% BRIJ-35, 10 mM MgCl2, 1 mM EGTA. The final 10 μL Kinase Reaction consists of 0.5-11.7 ng KDR (VEGFR2) and 2 μM Tyr 01 in 50 mM HEPES pH 7.5, 0.01% BRIJ-35, 10 mM MgCl2, 1 mM EGTA. After the 1 hour Kinase Reaction incubation, 5 μL of a 1:256 dilution of Development Reagent B is added.
The scale utilized in Table 5 is as follows: +++ less than 100 nM; and ++ greater than 100 nM

[3] = molecular target: BRAF V600E (Homo sapiens (Human), UniProt P15056, V600E); assay: Z′-LYTE kinase inhibition assay (Invitrogen), BRAF V600E; format: biochemical; conditions: 1 μM compound, Z′-LYTE method; read-out: % inhibition at 1 μM against BRAF V600E
Chain of BRAF V600E (P15056 whole entry V600E): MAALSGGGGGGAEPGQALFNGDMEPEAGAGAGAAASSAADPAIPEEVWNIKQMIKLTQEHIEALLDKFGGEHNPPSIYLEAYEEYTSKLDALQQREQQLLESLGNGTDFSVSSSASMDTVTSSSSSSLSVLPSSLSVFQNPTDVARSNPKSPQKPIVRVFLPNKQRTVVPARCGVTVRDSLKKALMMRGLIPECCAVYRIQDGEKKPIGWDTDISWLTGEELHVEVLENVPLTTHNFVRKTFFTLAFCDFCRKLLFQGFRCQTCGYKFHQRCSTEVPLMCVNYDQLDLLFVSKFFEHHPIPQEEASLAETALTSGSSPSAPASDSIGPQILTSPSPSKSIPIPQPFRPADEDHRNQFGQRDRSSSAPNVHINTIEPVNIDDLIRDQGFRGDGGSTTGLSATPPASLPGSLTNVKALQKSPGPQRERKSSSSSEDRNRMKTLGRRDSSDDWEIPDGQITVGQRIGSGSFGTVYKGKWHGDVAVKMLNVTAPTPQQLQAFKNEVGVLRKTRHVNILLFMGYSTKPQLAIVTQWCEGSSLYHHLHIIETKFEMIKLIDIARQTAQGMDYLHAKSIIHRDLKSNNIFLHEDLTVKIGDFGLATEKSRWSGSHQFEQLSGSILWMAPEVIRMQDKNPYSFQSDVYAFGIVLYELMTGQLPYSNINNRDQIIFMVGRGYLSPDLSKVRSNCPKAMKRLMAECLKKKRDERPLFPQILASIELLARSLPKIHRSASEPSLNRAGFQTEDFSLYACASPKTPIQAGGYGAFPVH
Procedure: as §3
The scale utilized in Table 3 is as follows: +++ less than 100 nM; and ++ greater than 100 nM.

[4] = test system: A375 cells; assay: Inhibition of cancer cell growth, MTT assay, A375; format: cell-based; conditions: Homo sapiens, A-375, 72 h exposure
Procedure: as §1, §2

IC50 [1] [µM]	inhibition at 1 µM [2] [%]	inhibition at 1 µM [3] [%]	IC50 [4] [µM]	SMILES
> 5	> 89	> 89	1 to 5	NCCNc1cnc2ccc(C(=O)c3cc(NC(=O)Nc4cccc(F)c4)ccc3F)cc2n1 [Compound C088, 1-(3-(3-((2-aminoethyl)amino)quinoxaline-6-carbonyl)-4-fluorophenyl)-3-(3-fluorophenyl)urea]
> 5	> 89	70 to 89	1 to 5	O=C(Nc1cccc(C(=O)c2ccc3ncc(N4CCCC4)nc3c2)c1)Nc1ccc(Cl)c(C(F)(F)F)c1 [Compound C021, 1-(4-chloro-3-(trifluoromethyl)phenyl)-3-(3-(3-(pyrrolidin-1-yl)quinoxaline-6-carbonyl)phenyl)urea]
2 to 5	70 to 89	> 89	1 to 5	O=C(Nc1ccc(F)c(C(=O)c2ccc3nccnc3c2)c1)c1ccc(Cl)c(C(F)(F)F)c1 [Compound C117, 4-chloro-N-(4-fluoro-3-(quinoxaline-6-carbonyl)phenyl)-3-(trifluoromethyl)benzamide]
2 to 5	< 70	> 89	1 to 5	O=C(Nc1cccc(C(F)(F)F)c1)Nc1cc(F)c(F)c(C(=O)c2ccc3nccnc3c2)c1 [Compound C042, 1-(3,4-difluoro-5-(quinoxaline-6-carbonyl)phenyl)-3-(3-(trifluoromethyl)phenyl)urea]
2 to 5	70 to 89	> 89	1 to 5	O=C(Nc1cccc(F)c1)Nc1ccc(F)c(C(=O)c2ccc3nccnc3c2)c1 [Compound C013, 1-(4-fluoro-3-(quinoxaline-6-carbonyl)phenyl)-3-(3-fluorophenyl)urea]
> 5	> 89	> 89	1 to 5	NCCNc1cnc2ccc(C(=O)c3cc(NC(=O)Nc4ccc(F)c(F)c4)ccc3F)cc2n1 [Compound C091, 1-(3-(3-((2-aminoethyl)amino)quinoxaline-6-carbonyl)-4-fluorophenyl)-3-(3,4-difluorophenyl)urea]
< 2	> 89	> 89	< 1	O=C(Nc1ccc(F)c(Cl)c1)Nc1ccc(F)c(C(=O)c2ccc3ncc(N4CCOCC4)nc3c2)c1 [Compound C055, 1-(3-chloro-4-fluorophenyl)-3-(4-fluoro-3-(3-morpholinoquinoxaline-6-carbonyl)phenyl)urea]
2 to 5	70 to 89	> 89	1 to 5	O=C(Nc1cc(F)cc(Cl)c1)Nc1ccc(F)c(C(=O)c2ccc3ncc(N4CCOCC4)nc3c2)c1 [Compound C059, 1-(3-chloro-5-fluorophenyl)-3-(4-fluoro-3-(3-morpholinoquinoxaline-6-carbonyl)phenyl)urea]
2 to 5	> 89	> 89	< 1	O=C(Nc1cccc(F)c1)Nc1ccc(F)c(C(=O)c2ccc3ncc(N4CCNCC4)nc3c2)c1 [Compound C084, 1-(4-fluoro-3-(3-(piperazin-1-yl)quinoxaline-6-carbonyl)phenyl)-3-(3-fluorophenyl)urea]
< 2	70 to 89	> 89	> 5	O=C(Nc1cccc(F)c1)Nc1cc(F)c(F)c(C(=O)c2ccc3nccnc3c2)c1 [Compound C024, 1-(3,4-difluoro-5-(quinoxaline-6-carbonyl)phenyl)-3-(3-fluorophenyl)urea]
> 5	< 70	70 to 89	> 5	O=C(Nc1cccc(C(F)(F)F)c1)Nc1ccc(F)c(C(=O)c2ccc3nccnc3c2)c1F [Compound C010, 1-(2,4-difluoro-3-(quinoxaline-6-carbonyl)phenyl)-3-(3-(trifluoromethyl)phenyl)urea]
> 5	70 to 89	> 89	1 to 5	COc1cnc2ccc(C(=O)c3cc(NC(=O)Nc4cccc(F)c4)ccc3F)cc2n1 [Compound C083, 1-(4-fluoro-3-(3-methoxyquinoxaline-6-carbonyl)phenyl)-3-(3-fluorophenyl)urea]

More lines, now with the values behind:

SMILES	IC50 [1] [µM]	inhibition at 1 µM [2] [%]	inhibition at 1 µM [3] [%]	IC50 [4] [µM]
O=C(Nc1cc(F)cc(Cl)c1)Nc1cc(F)cc(C(=O)c2ccc3nccnc3c2)c1 [Compound C062, 1-(3-chloro-5-fluorophenyl)-3-(3-fluoro-5-(quinoxaline-6-carbonyl)phenyl)urea]	2 to 5	< 70	> 89	> 5
O=C(Nc1cc(F)cc(C(=O)c2ccc3nccnc3c2)c1)c1cccc(C(F)(F)F)c1 [Compound C126, N-(3-fluoro-5-(quinoxaline-6-carbonyl)phenyl)-3-(trifluoromethyl)benzamide]	> 5	< 70	> 89	1 to 5
O=C(Nc1ccc(Cl)c(C(F)(F)F)c1)Nc1ccc(F)c(C(=O)c2ccc3nccnc3c2)c1F [Compound C012, 1-(4-chloro-3-(trifluoromethyl)phenyl)-3-(2,4-difluoro-3-(quinoxaline-6-carbonyl)phenyl)urea]	< 2	< 70	< 70	1 to 5
O=C(Nc1cc(F)cc(C(=O)c2ccc3nccnc3c2)c1)c1cccc(F)c1 [Compound C125, 3-fluoro-N-(3-fluoro-5-(quinoxaline-6-carbonyl)phenyl)benzamide]	> 5	< 70	< 70	> 5
O=C(Nc1cc(F)cc(C(=O)c2ccc3ncc(N4CCOCC4)nc3c2)c1)c1cccc(F)c1 [Compound C142, 3-fluoro-N-(3-fluoro-5-(3-morpholinoquinoxaline-6-carbonyl)phenyl)benzamide]	2 to 5	70 to 89	70 to 89	1 to 5
O=C(Nc1cc(F)c(F)c(C(=O)c2ccc3ncc(N4CCOCC4)nc3c2)c1F)c1ccc(Cl)c(C(F)(F)F)c1 [Compound C139]	> 5	< 70	< 70	> 5
O=C(Nc1cc(F)cc(C(=O)c2ccc3nccnc3c2)c1)c1ccc(Cl)c(C(F)(F)F)c1 [Compound C127, 4-chloro-N-(3-fluoro-5-(quinoxaline-6-carbonyl)phenyl)-3-(trifluoromethyl)benzamide]	> 5	< 70	70 to 89	> 5
O=C(Nc1cc(F)c(F)c(C(=O)c2ccc3nccnc3c2)c1)c1cccc(C(F)(F)F)c1 [Compound C128, N-(3,4-difluoro-5-(quinoxaline-6-carbonyl)phenyl)-3-(trifluoromethyl)benzamide]	> 5	70 to 89	> 89	1 to 5
O=C(Nc1cc(F)c(F)c(C(=O)c2ccc3nccnc3c2)c1F)c1ccc(Cl)c(C(F)(F)F)c1 [Compound C140, 4-chloro-N-(2,4,5-trifluoro-3-(quinoxaline-6-carbonyl)phenyl)-3-(trifluoromethyl)benzamide]	> 5	< 70	70 to 89	> 5
